System: OVCAR-5 complex spheroids, viability
Test: Anticancer human tumor OVCAR-5 cell line growth inhibition;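 also: spheroids exposed to agents for seven days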;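 as to viability, T/C: 100% = DMSO vehicle control wells viability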
Conditions: for IC50: curve of first compound; for viability, T/C: stronger effect = lower value
Outline: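 Multicellular complex spheroids of tumor cells with human endothelial cells (HUVEC) and mesenchymal stem cells; the LSD1 inhibitor iadademstat was combined with standard-of-care or investigational agents. Top concentration at or near clinical Cmax, half-log dilutions; final DMSO ≤0.25%.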

[1] = second compound 0.1 µM, first compound 0.00949 µM
[2] = second compound 0.1 µM, first compound 0.03 µM
[3] = second compound 0.1 µM, first compound 0.0949 µM
[4] = second compound 0.1 µM, first compound 0.3 µM
[5] = second compound 0.316 µM, first compound 0.00949 µM
[6] = second compound 0.316 µM, first compound 0.03 µM
[7] = second compound 0.316 µM, first compound 0.0949 µM
[8] = second compound 0.316 µM, first compound 0.3 µM
[9] = second compound 1 µM, first compound 0.00949 µM
[10] = second compound 1 µM, first compound 0.03 µM
[11] = second compound 1 µM, first compound 0.0949 µM
[12] = second compound 1 µM, first compound 0.3 µM
[13] = second compound 3.16 µM, first compound 0.00949 µM
[14] = second compound 3.16 µM, first compound 0.03 µM
[15] = second compound 3.16 µM, first compound 0.0949 µM
[16] = second compound 3.16 µM, first compound 0.3 µM
[17] = second compound 10 µM, first compound 0.00949 µM
[18] = second compound 10 µM, first compound 0.03 µM
[19] = second compound 10 µM, first compound 0.0949 µM
[20] = second compound 10 µM, first compound 0.3 µM

For `CCN(c1cc(-c2ccc(CN3CCOCC3)cc2)cc(C(=O)NCc2c(C)cc(C)[nH]c2=O)c1C)C1CCOCC1` + NC1CC1c1ccc(-c2cccc(O)c2)cc1, the IC50 (second compound 0.1 µM) was > 3000 nM, the IC50 (second compound 0.316 µM) was > 3000 nM and the IC50 (second compound 1 µM) was > 3000 nM. The IC50 (second compound 3.16 µM) was > 3000 nM, the IC50 (second compound 10 µM) was > 3000 nM and the viability, T/C [1] was 87.6%. It also gave a viability, T/C [2] of 98.8%, a viability, T/C [3] of 106% and a viability, T/C [4] of 97%. It also gave a viability, T/C (second compound 0.1 µM, first compound 0.949 µM) of 107%, a viability, T/C (second compound 0.1 µM, first compound 3 µM) of 92.6% and a viability, T/C [5] of 102%. For the same molecule, the viability, T/C [6] was 108%, the viability, T/C [7] was 99.3% and the viability, T/C [8] was 94.8%. The viability, T/C (second compound 0.316 µM, first compound 0.949 µM) was 104%, the viability, T/C (second compound 0.316 µM, first compound 3 µM) was 102% and the viability, T/C [9] was 91.5%. The viability, T/C [10] was 84.4%, the viability, T/C [11] was 94.3% and the viability, T/C [12] was 103%. For the same molecule, the viability, T/C (second compound 1 µM, first compound 0.949 µM) was 91.9%, the viability, T/C (second compound 1 µM, first compound 3 µM) was 98.5% and the viability, T/C [13] was 88.8%. For the same molecule, the viability, T/C [14] was 87.7%, the viability, T/C [15] was 90.4% and the viability, T/C [16] was 90.9%. It also gave a viability, T/C (second compound 3.16 µM, first compound 0.949 µM) of 90.6%, a viability, T/C (second compound 3.16 µM, first compound 3 µM) of 92.9% and a viability, T/C [17] of 86.7%. The viability, T/C [18] was 91.9%, the viability, T/C [19] was 85.5% and the viability, T/C [20] was 93.4%. It also gave a viability, T/C (second compound 10 µM, first compound 0.949 µM) of 95.5% and a viability, T/C (second compound 10 µM, first compound 3 µM) of 91.1%.

In the case of `Cn1ncnc1C1c2n[nH]c(=O)c3cc(F)cc(c23)NC1c1ccc(F)cc1` (stereo not given) + NC1CC1c1ccc(-c2cccc(O)c2)cc1, the IC50 (second compound 0.1 µM) is reported as > 100 nM, the IC50 (second compound 0.316 µM) is reported as > 100 nM and the IC50 (second compound 1 µM) is reported as > 100 nM. For the same molecule, the IC50 (second compound 3.16 µM) was > 100 nM, the IC50 (second compound 10 µM) was > 100 nM and the viability, T/C (second compound 0.1 µM, first compound 0.000316 µM) was 101%. The viability, T/C (second compound 0.1 µM, first compound 0.001 µM) was 94.1%, the viability, T/C (second compound 0.1 µM, first compound 0.00316 µM) was 85.4% and the viability, T/C (second compound 0.1 µM, first compound 0.01 µM) was 95.3%. For the same molecule, the viability, T/C (second compound 0.1 µM, first compound 0.0316 µM) was 83.2%, the viability, T/C (second compound 0.1 µM, first compound 0.1 µM) was 77.8% and the viability, T/C (second compound 0.316 µM, first compound 0.000316 µM) was 94.6%. For the same molecule, the viability, T/C (second compound 0.316 µM, first compound 0.001 µM) was 99.3%, the viability, T/C (second compound 0.316 µM, first compound 0.00316 µM) was 95.1% and the viability, T/C (second compound 0.316 µM, first compound 0.01 µM) was 89.9%. It also gave a viability, T/C (second compound 0.316 µM, first compound 0.0316 µM) of 93%, a viability, T/C (second compound 0.316 µM, first compound 0.1 µM) of 91.9% and a viability, T/C (second compound 1 µM, first compound 0.000316 µM) of 81.3%. The viability, T/C (second compound 1 µM, first compound 0.001 µM) was 91.4%, the viability, T/C (second compound 1 µM, first compound 0.00316 µM) was 89.7% and the viability, T/C (second compound 1 µM, first compound 0.01 µM) was 79.5%. For the same molecule, the viability, T/C (second compound 1 µM, first compound 0.0316 µM) was 92.8%, the viability, T/C (second compound 1 µM, first compound 0.1 µM) was 85.6% and the viability, T/C (second compound 3.16 µM, first compound 0.000316 µM) was 88.4%. The viability, T/C (second compound 3.16 µM, first compound 0.001 µM) was 94.2%, the viability, T/C (second compound 3.16 µM, first compound 0.00316 µM) was 88.1% and the viability, T/C (second compound 3.16 µM, first compound 0.01 µM) was 81.9%. It also gave a viability, T/C (second compound 3.16 µM, first compound 0.0316 µM) of 74.3%, a viability, T/C (second compound 3.16 µM, first compound 0.1 µM) of 73.2% and a viability, T/C (second compound 10 µM, first compound 0.000316 µM) of 82.6%. The viability, T/C (second compound 10 µM, first compound 0.001 µM) was 96.6%, the viability, T/C (second compound 10 µM, first compound 0.00316 µM) was 85.5% and the viability, T/C (second compound 10 µM, first compound 0.01 µM) was 78.2%. For the same molecule, the viability, T/C (second compound 10 µM, first compound 0.0316 µM) was 72.6% and the viability, T/C (second compound 10 µM, first compound 0.1 µM) was 80.3%.

In the case of `Nc1ncn(C2CC(O)C(CO)S2)c(=O)n1` (stereo not given) + NC1CC1c1ccc(-c2cccc(O)c2)cc1, the IC50 (second compound 0.1 µM) is reported as > 300 nM, the IC50 (second compound 0.316 µM) is reported as > 300 nM and the IC50 (second compound 1 µM) is reported as > 300 nM. The IC50 (second compound 3.16 µM) was > 300 nM, the IC50 (second compound 10 µM) was > 300 nM and the viability, T/C (second compound 0.1 µM, first compound 0.000949 µM) was 100%. The viability, T/C (second compound 0.1 µM, first compound 0.003 µM) was 110%, the viability, T/C [1] was 104% and the viability, T/C [2] was 95%. The viability, T/C [3] was 80.9%, the viability, T/C [4] was 71.2% and the viability, T/C (second compound 0.316 µM, first compound 0.000949 µM) was 107%. It also gave a viability, T/C (second compound 0.316 µM, first compound 0.003 µM) of 112%, a viability, T/C [5] of 108% and a viability, T/C [6] of 96.2%. It also gave a viability, T/C [7] of 88.5%, a viability, T/C [8] of 69.8% and a viability, T/C (second compound 1 µM, first compound 0.000949 µM) of 93.7%. It also gave a viability, T/C (second compound 1 µM, first compound 0.003 µM) of 86.6%, a viability, T/C [9] of 93.9% and a viability, T/C [10] of 92.4%. For the same molecule, the viability, T/C [11] was 74.7%, the viability, T/C [12] was 61.7% and the viability, T/C (second compound 3.16 µM, first compound 0.000949 µM) was 95.8%. For the same molecule, the viability, T/C (second compound 3.16 µM, first compound 0.003 µM) was 97.8%, the viability, T/C [13] was 91.3% and the viability, T/C [14] was 81.6%. The viability, T/C [15] was 79.8%, the viability, T/C [16] was 64.4% and the viability, T/C (second compound 10 µM, first compound 0.000949 µM) was 79%. It also gave a viability, T/C (second compound 10 µM, first compound 0.003 µM) of 93.6%, a viability, T/C [17] of 84.8% and a viability, T/C [18] of 78.1%. For the same molecule, the viability, T/C [19] was 70% and the viability, T/C [20] was 60%.
